Assay results taken from article PMC5856786, “A DHODH inhibitor increases p53 synthesis and enhances tumor cell killing by p53 degradation blockage” (Nature Communications, 2018).

Columns and labels:
MV411 cells = assay: PI flow cytometry, sub-G1 cells, MV411; type: cell-based; settings: DMSO 72 h + 48 h, 2 μM nutlin-3a last 48 h
Protocol: (§1) Cell cycle distribution analysis was performed on a Becton Dickinson FACScan flow cytometer or FACSCalibur (BD Biosciences) following staining with propidium iodide (PI) or dual labeling with BrdU and PI[36]. These assays were analyzed using CellQuest Pro (BD Biosciences).

U2OS cells [1] = assay: Annexin V/PI apoptosis flow cytometry; type: cell-based; settings: HZ05 72 h, washed, nutlin-3a 48 h
Protocol: Fig. 7 HZ05 increases p53 levels in S-phase cells. a U2OS cells were treated with DMSO (vehicle) or HZ05 (1 μM) for 72 h. The upper left panel is a representative dot plot showing the gating strategy for cells expressing high p53 levels (blue: HZ05 treated and red: DMSO treated). […] A representative histogram of the fluorescence intensity of FITC-p53 in S-phase cells is shown in the lower right panel. Bar graphs show the average of three independent experiments. Unpaired t-test was employed to assess statistical significance using GraphPad Prism version 7 (****p < 0.0001 and ***p < 0.001). b U2OS cells were pretreated with HZ05 for 72 h, washed with medium containing DMSO or nutlin-3a, and then provided with fresh medium containing DMSO or nutlin-3a. After an additional 48 h, Annexin V and PI staining was analyzed by flow cytometry. The average of two independent experiments ± SD is shown. c Hypothetical model describing the combination of DHODH inhibition with mdm2 antagonists. […] Inhibition of p53 degradation in the form of an mdm2 antagonist leads to death of cells in S-phase
For the detection of apoptotic cells, the Annexin V-FITC Apoptosis detection kit (Ab#14085) was used with analysis conducted using FlowJo software V10.2.

U2OS cells [2] = assay: PI flow cytometry, sub-G1 cells, U2OS; type: cell-based; settings: DMSO 72 h + 48 h, 2 μM nutlin-3a last 48 h
Protocol: as §1

[3] = Pharmacokinetic study, nutlin-3a single or co-administered with (R)-HZ05; type: in vivo, NOD-SCID mice; settings: mice; nutlin-3a 50 mg kg-1 oral + (R)-HZ05 75 mg kg-1 s.c.
Protocol: collected from the retro-orbital plexus of three mice per group per time point at the following times: pre-dose, 0.08, 0.25, 0.5, 1, 2, 4, 8, and 24 h. Samples were collected into tubes with 20 % potassium-EDTA solution. Plasma was separated at 4000 rpm for 10 minutes at 4 °C and stored at -70 °C until analysis. 25 µL of study sample or spiked plasma calibration standards were added to individual tubes followed by 100 µL of Glipizide at 500 ng mL-1 as an internal standard. Samples were centrifuged at 4000 rpm at 4 °C for 10 minutes. 100 µL of cleared supernatant was transferred to 96-well plates and analyzed using a Waters ACQUITY UPLC connected to an AB Sciex API 4000 QTRAP in MRM mode with positive electrospray ionization with an ion spray voltage of 5500 V. The mobile phase was A: 0.1 % formic acid in acetonitrile and B: 0.1 % formic acid in water through a phenomenex Kinetex EVO C18 (5 µm, 100 × 4.6 mm) kept at 45 °C. […]
Samples were centrifuged at 4000 rpm at 4 °C for 10 minutes. 100 µL of cleared supernatant was transferred to 96-well plates and analyzed using a Waters ACQUITY UPLC connected to an AB Sciex API 4000 QTRAP in MRM mode with positive electrospray ionization with an ion spray voltage of 5500 V. The mobile phase was A: 0.1 % formic acid in acetonitrile and B: 0.1 % formic acid in water through a phenomenex Kinetex EVO C18 (5 µm, 100 × 4.6 mm) kept at 45 °C. […]

ARN8 cells = assay: PI flow cytometry, sub-G1 cells, ARN8; type: cell-based, human; settings: ARN8 72 h
Protocol: as §1

HNDF cells = assay: PI flow cytometry, sub-G1 cells, HNDF; type: cell-based, human; settings: DMSO 72 h + 48 h, 2 μM nutlin-3a last 48 h
Protocol: as §1

ARN8 xenograft = assay: ARN8 subcutaneous xenograft; type: in vivo; settings: ARN8 xenograft; (R)-HZ05 75 mg/kg q.d. s.c. or nutlin-3a 50 mg/kg b.i.d. orally
Protocol: All animal xenograft experiments were approved by the Norwegian Animal Research Authority and conducted according to The European Convention for the Protection of Vertebrates Used for Scientific Purposes. […] The health status and weight of the mice were monitored daily and they were randomized in a non-blinded manner into 4 groups when tumor volumes reached 30–40 mm^3. […] Tumor volumes were measured every second day by a digital caliper using the following ellipsoid formula: Volume = π (length × width × height)/6.
To determine the efficacy of (R)-HZ05 in combination with nutlin-3a, 4 groups of NSG mice (n = 8 per group) were subcutaneously injected in the flank region with a single 100 μL injection of 2 × 10^6 ARN8 cells in a solution of PBS:Matrigel (volume ratio 3:1). Treatment was initiated when tumors reached ~50 mm^3. The maximum tolerated dose for this combination of drugs was previously determined for the strain we used. The endpoint of the experiment was determined by the tumor size ([…]) weight loss, and general condition of the mice according to The Norwegian Animal Research Authority.

SMILES: COc1ccc(C2=N[C@@H](c3ccc(Cl)cc3)[C@@H](c3ccc(Cl)cc3)N2C(=O)N2CCNC(=O)C2)c(OC(C)C)c1 [nutlin-3a, reference compound]
- sub-G1 cells (MV411 cells): 37.2%
- effect of nutlin-3a after HZ05 pre-treatment and wash-out (U2OS cells [1]): triggered cell death
- sub-G1 cells (U2OS cells [2]): 1.1%
- half-life on co-administration with (R)-HZ05 [3]: not prolonged
- DMSO control subtracted effect (cells in sub-G1) (ARN8 cells; HZ05 0 nM + nutlin-3a 5 µM): 0.05
- DMSO control subtracted effect (cells in sub-G1) (ARN8 cells; HZ05 0 nM + nutlin-3a 10 µM): 0.07
- DMSO control subtracted effect (cells in sub-G1) (ARN8 cells; HZ05 0 nM + nutlin-3a 15 µM): 0.12
- DMSO control subtracted effect (cells in sub-G1) (ARN8 cells; HZ05 0 nM + nutlin-3a […]): 0.10
- sub-G1 cells (ARN8 cells; nutlin-3a 1 μM): 0.8%
- sub-G1 cells (ARN8 cells; nutlin-3a 2.5 μM): 1.59%
- sub-G1 cells (ARN8 cells; nutlin-3a 5 μM): 3.52%
- sub-G1 cells (HNDF cells): 1.2%
- xenograft tumor growth, single agent (ARN8 xenograft): ineffective
